Measured values published in paper PMC6877910, “Astrocyte-Targeted Transporter-Utilizing Derivatives of Ferulic Acid Can Have Multifunctional Effects Ameliorating Inflammation and Oxidative Stress in the Brain” (Oxidative Medicine and Cellular Longevity, 2019).

How the values were obtained:
[1] = test system: peroxidase activity of cyclooxygenases (COX); experiment: Peroxidase activity of cyclooxygenases in cell lysates (fluorometric kit); type: biochemical; settings: 100 μM; 30 min; assay does not differentiate COX from LOX
Description: A coupled oxidation-reduction fluorometric assay was used to assess the inhibitory effect of compounds (100 μM) together with positive controls on the peroxidase activity of cyclooxygenases (COX) (ab204699 Cyclooxygenase Activity Assay Kit, Abcam, Cambridge, UK). The method has been done and validated according to the manufacturer's protocol. Briefly, studied compounds (100 μM) and the reaction mixture were incubated with the cell lysates at room temperature and the reaction was initiated by adding arachidonic acid/NaOH solution. The fluorescence was read in a kinetic mode after every 15 seconds for 30 minutes by the EnVision plate reader (EnVision, PerkinElmer, Inc., Waltham, MA, USA) at λex 535 nm and λem 587 nm.

mTOR = experiment: Total amount of mTOR (ELISA) in cells; type: cell-based, mouse; settings: 48 h
Description: Enzyme-Linked Immunosorbent Assay (ELISA) kits were used (mTOR SimpleStep ELISA Kit and NFκB p65 Total SimpeStep ELISA Kit, Abcam, Cambridge, UK) to quantify mammalian (or mechanistic) target of rapamycin (mTOR) and transcription factor NF-κB amounts, respectively. […] The control wells were treated with the solvent only (0.5% DMSO). Cells were solubilized using the provided extraction buffer with the kit, incubated on ice for 20 minutes and centrifuged at 18 000 × g for 20 min at 4°C. The supernatants were stored at -80°C till the day of the analysis. Standards and samples were then analyzed following the manufacturer's protocol (ELISA sandwich method) and by reading the absorbance with the EnVision plate reader (EnVision, PerkinElmer, Inc., Waltham, MA, USA) at 450 nm. The results were analyzed as pmol of formed mTOR or NF-κB per mL.

purified human BACE1 = biological target: T1, purified human BACE1 (Homo sapiens, UniProt P56817); experiment: BACE1 FRET inhibition assay (SensoLyte 520); type: biochemical; settings: 0.25 μM; 30 min
T1 construct: purchased AnaSpec, Inc., Fremont, CA, USA SensoLyte 520 BACE1 Assay kit (catalogue number not given)
T1 sequence (P56817 46-501): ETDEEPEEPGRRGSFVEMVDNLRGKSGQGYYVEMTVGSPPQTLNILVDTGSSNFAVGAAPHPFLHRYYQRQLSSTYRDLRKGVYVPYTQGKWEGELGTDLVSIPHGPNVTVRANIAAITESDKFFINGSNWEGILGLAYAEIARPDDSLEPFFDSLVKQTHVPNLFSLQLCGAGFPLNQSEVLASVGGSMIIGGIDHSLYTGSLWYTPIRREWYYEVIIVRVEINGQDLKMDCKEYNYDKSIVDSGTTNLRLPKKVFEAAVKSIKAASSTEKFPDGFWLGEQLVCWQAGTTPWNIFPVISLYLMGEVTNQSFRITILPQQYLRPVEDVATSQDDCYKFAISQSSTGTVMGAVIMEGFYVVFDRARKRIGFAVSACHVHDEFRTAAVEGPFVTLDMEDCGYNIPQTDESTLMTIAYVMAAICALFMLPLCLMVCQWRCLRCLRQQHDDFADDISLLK
Excerpt: A fluorometric assay was used to screen the inhibitory effect of the studied compounds on purified human BACE1 using a fluorescence resonance energy transfer (FRET) peptide technique (SensoLyte© 520 BACE1 Assay kit, AnaSpec, Inc., Fremont, CA, USA) according to the manufacturer's protocol. […] The sequence of the FRET peptide has been derived from the β-secretase cleavage site of β-amyloid precursor protein (APP) with Swedish mutation, which enhances β-secretase to process APP resulting in an early onset of AD. Thus, active β-secretase cleaved FRET substrate into two separate fragments resulting in the release of HiLyte™ Fluor 488 fluorescence that was measured by the EnVision plate reader (EnVision, PerkinElmer, Inc., Waltham, MA, USA) at λex 490 nm and λem 520 nm. […] The results were reported as percentages (%), with control sample representing 100% β-secretase activity.

O=C(O)Cc1ccccc1Nc1c(Cl)cccc1Cl [DCF, diclofenac]
Inhibition of peroxidase activity of COX enzymes [1]: 18%

NCC1(CC(=O)O)CCCCC1 [gabapentin]
Reduction of total amount of mTOR (mTOR; 100 μM): 46-49%

CN(C)C(=N)N=C(N)N [metformin]
Reduction of total amount of mTOR (mTOR; 100 μM): did not affect

CO[C@H]1C[C@@H]2CC[C@@H](C)[C@@](O)(O2)C(=O)C(=O)N2CCCC[C@H]2C(=O)O[C@H]([C@H](C)C[C@@H]2CC[C@@H](O)[C@H](OC)C2)CC(=O)[C@H](C)/C=C(\C)[C@@H](O)[C@@H](OC)C(=O)[C@H](C)C[C@H](C)/C=C/C=C/C=C/1C [rapamycin]
Reduction of total amount of mTOR (mTOR; 1 μM): 46-49%

KTEEISEVN-Sta-VAEF-NH2 [reference compound]
BACE1 inhibition (purified human BACE1): ca. 85%
